From PubChem BioAssay AID608 (Sanford-Burnham Center for Chemical Genomics, 2007)
Values joined by “and” are separate entries in the source; they are usually repeats but may differ in a detail not shown here. Equal entries are not always repeated. Active and inactive are the calls of the source. The rule behind the calls is not given here.

molecular target: Peptidyl-prolyl cis-trans isomerase FKBP1A (Homo sapiens) (UniProt P62942); assay: small-molecule binding to FKBP12 – biophysical, NMR detection (AID 608); details: purified FKBP12
Sequence (P62942 whole entry, looked up): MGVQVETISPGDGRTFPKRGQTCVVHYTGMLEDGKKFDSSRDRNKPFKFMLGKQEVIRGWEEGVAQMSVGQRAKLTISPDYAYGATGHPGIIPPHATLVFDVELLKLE

SMILES | Kd
CCN1CCc2c(sc(N)c2C(N)=O)C1 | > 4 mM (inactive)
NCc1cccc2c1OCCCO2 | > 4 mM (inactive)
O=C(O)CSCc1c(F)cccc1Cl | > 4 mM (inactive)
CCOc1ccc(OCC(=O)N2CCOCC2)cc1 | inactive
Cc1n[nH]c(=O)c2ncn(C)c12 | > 4 mM (inactive)
S=c1oc(-c2ccncc2)nn1CCc1ccncc1 | inactive
Cn1c(SCc2ccon2)nc2ccccc2c1=O | > 4 mM (inactive)
Cc1nn(CC(=O)Nc2ccccc2)c(=O)c2ccccc12 | > 4 mM (inactive)
OCc1ccc2occc2c1 | > 4 mM (inactive)
O=C(O)C1Cc2ccccc2N1 (centres undefined) | > 4 mM (inactive)
CC(=O)Nc1cc2c(cc1C(=O)C(C)C)OCCO2 | > 4 mM (inactive)
Cc1cc(C(=O)NCc2ccco2)cs1 | > 4 mM (inactive)
CC(=O)Nc1ccc(Cl)c(C(N)=O)c1 | > 4 mM (inactive)
Cc1ccc(SCc2cc(=O)n3[nH]c(C)nc3n2)cc1 | > 4 mM (inactive)
CNS(=O)(=O)c1ccc2[nH]c(=O)[nH]c2c1 | > 4 mM (inactive)
O=C1NC(=S)N/C1=C/c1ccsc1 | > 4 mM (inactive)
Cn1ncc(C(=O)NC2CCCCC2)c1Cl | > 4 mM (inactive)
CN(C)c1n[nH]c(=O)[nH]c1=O | > 4 mM (inactive)
COC(=O)CSc1n[nH]c(N)n1 | > 4 mM (inactive)
O=C(CSc1nc2ccccc2[nH]1)N1CCCCC1 | > 4 mM (inactive)
C=C(C)[C@H]1CC=C(C(=O)O)CC1 | > 4 mM (inactive)
CN(C)S(=O)(=O)c1cccc(N)c1 | > 4 mM (inactive)
O=C(NC1=NCCS1)c1ccc([N+](=O)[O-])cc1Cl | > 4 mM (inactive)

SMILES | Kd
Cc1cc2cc(N)ccc2[nH]1 | > 4 mM (inactive)
CC(=O)Nc1ccc(C(=O)NC2CCSC2=O)cc1 (centres undefined) | > 4 mM (inactive)
NC1=C(c2ccccc2)C(=O)c2ccccc21 | > 4 mM (inactive)
CSc1nnnn1-c1cccc(O)c1 | > 4 mM (inactive)
CN1CCC[C@H]1c1cccnc1 | > 4 mM (inactive)
Nc1ccncc1 | > 4 mM (inactive)
N[C@@H](C(=O)O)[C@@H](O)[C@H](O)[C@H](O)CO | > 4 mM (inactive)
O=C(Nc1ccccc1[N+](=O)[O-])c1ccc(=O)[nH]n1 | > 4 mM (inactive)
CC(=O)Nc1cccc(NC(=O)c2cccnc2)c1 | > 4 mM (inactive)
NS(=O)(=O)c1ccc2c3c(cccc13)C(=O)N2 | > 4 mM (inactive)
CCc1ccccc1NC(=O)c1ccoc1C | > 4 mM (inactive)
O=C(Nc1ccon1)c1cc2c(s1)CCCC2 | > 4 mM (inactive)
O=C(O)CN1C(=O)c2ccc(C(=O)O)cc2C1=O | > 4 mM (inactive)
CCn1c(=O)cc(N2CCC3(CC2)OCCO3)[nH]c1=O | > 4 mM (inactive)
Cc1ccc(C)n1-c1ccc(C(=O)N2CCOCC2)cc1 | > 4 mM (inactive)
CCCc1cc2c(c(NC(C)=O)n1)c(=O)oc1ccccc12 | > 4 mM (inactive)
O=C(/C=C/c1ccccc1)NC1CCS(=O)(=O)C1 (centres undefined) | > 4 mM (inactive)
COc1c(C(C)C)oc2cc3oc(=O)ccc3cc12 | > 4 mM (inactive)
CCc1ccc2oc(-c3cc(N)cc(C)c3O)nc2c1 | > 4 mM (inactive)
CCOC(=O)c1ccc2c(c1)nnn2C | > 4 mM (inactive)
O=CN1CCN(C(=O)c2ccccc2F)CC1 | > 4 mM (inactive)
OCc1csc(-c2cccs2)n1 | > 4 mM (inactive)
Nc1ncc2[nH]cnc2n1 | > 4 mM (inactive)

SMILES | Kd
OCC1CCCCCN1 (centres undefined) | > 4 mM (inactive)
COc1ccc(NC(=O)C2CC(=O)N=C(N)S2)cc1 (centres undefined) | > 4 mM (inactive)
O=C1CCC(=O)N1c1cccnc1 | > 4 mM (inactive)
c1ccc2[nH]c(-c3cscn3)nc2c1 | 0.111 mM and 0.056 mM
NS(=O)(=O)c1ccc(N=Cc2cccs2)cc1 | > 4 mM (inactive)
Cc1occc1C(=O)Nc1ccc(C(N)=O)cc1 | > 4 mM (inactive)
c1ccc2[nH]c(SCc3cscn3)nc2c1 | inactive
COc1ccc2c(c1OC)C(=O)OC2[C@H]1c2c(cc3c(c2OC)OCO3)CCN1C (some centres undefined) | > 4 mM (inactive)
Cc1ccc2c(c1)CCCN2C(=O)c1c(C)noc1C | > 4 mM (inactive)
O=c1cnnc(SCCc2ccccc2)[nH]1 | > 4 mM (inactive)
CCNS(=O)(=O)c1ccc(OC)c(C)c1 | > 4 mM (inactive)
NC(=O)c1ccc(NC(=O)c2cccnc2)cc1 | > 4 mM (inactive)
O=c1c2c(nc3nc(COc4ccccc4)[nH]n13)CCC2 | > 4 mM (inactive)
Cn1cc(Cl)c(C(=O)Nc2ccc(F)cc2F)n1 | > 4 mM (inactive)
COc1ccc2cnn(-c3ccccc3)c(=O)c2c1OC | > 4 mM (inactive)
Cc1ccnc(NS(=O)(=O)c2cccs2)c1 | > 4 mM (inactive)
CC(=O)OCC(OC(C)=O)C(OC(C)=O)C(OC(C)=O)C(OC(C)=O)C(COC(C)=O)OC(C)=O (centres undefined) | > 4 mM (inactive)
CC(=O)c1ccc(CC2SC(N)=NC2=O)cc1 (centres undefined) | > 4 mM (inactive)
Cc1csc2nc(=O)c3ccccc3n12 | > 4 mM (inactive)
Cc1cc(C)cc(C(=O)N2CCC(C(N)=O)CC2)c1 | > 4 mM (inactive)
Cc1cc(C)nc(/N=C(/N)N2CCC(C(N)=O)CC2)n1 | > 4 mM (inactive)
CCOC(=O)Cc1nc2ccccc2[nH]1 | > 4 mM (inactive)
CC(C)c1ccc(SCC(=O)O)cc1 | > 4 mM (inactive)

SMILES | Kd
Nc1cccc(-n2cnnn2)c1 | > 4 mM (inactive)
O=C(c1ccccc1F)N1CCN(c2ccccc2)CC1 | > 4 mM (inactive)
CC1=CC2C(CC1=O)C(C)=CCC2C(C)C (centres undefined) | > 4 mM (inactive)
c1ccc2c(c1)nnn2C1CCNCC1 | > 4 mM (inactive)
COc1cccc(-c2nc(-c3ccccn3)no2)c1OC | > 4 mM (inactive)
Cc1ccc(-c2nnc3sc(-c4ccncc4)nn23)cc1 | > 4 mM (inactive)
O=c1ccc2nc3ccccc3c(=O)n2[nH]1 | > 4 mM (inactive)
Oc1ccc(/C=C/c2cc(O)cc(O)c2)cc1 | > 4 mM (inactive)
c1ccc(CCc2nc(-c3ccncc3)no2)cc1 | > 4 mM (inactive)
O=c1cc(O)n(-c2ccc(F)cc2)c(=S)[nH]1 | > 4 mM (inactive)
CO[C@H]1[C@@H](O)[C@@H](C)O[C@H](O[C@H]2CCC3(C)C4CCC5(C)[C@@H](C6=CC(=O)OC6)CC[C@]5(O)[C@@H]4CC[C@]3(O)C2)[C@@H]1O (some centres undefined) | > 4 mM (inactive)
CCSc1nc(=S)n(CC)c(C)c1C(C)=O | > 4 mM (inactive)
CC(=O)Nc1ccc(NC(=O)/C=C\C(=O)O)cc1 | > 4 mM (inactive)
NC1=NC(=O)C(CC(=O)Nc2ccccc2F)S1 (centres undefined) | > 4 mM (inactive)
Cc1c(CCO)c(=O)n2c([nH]c3ccccc32)c1C#N | > 4 mM (inactive)
COc1cc(C(=S)N2CCC(C(N)=O)CC2)ccc1O | > 4 mM (inactive)
COc1ccc2c(c1OC)OC[C@@H](c1ccc(OC)c(OC)c1OC)C2 | > 4 mM (inactive)
Nc1cccnc1Oc1ccc(F)cc1F | > 4 mM (inactive)
CCCCC(Nc1n[nH]c(=O)[nH]c1=O)C(=O)O (centres undefined) | > 4 mM (inactive)
O=C(Cc1c(F)cccc1Cl)Nc1ccncc1 | > 4 mM (inactive)
